Test results published in patent US9738634B2, “Heterocyclic amide compound and herbicide” (SYNGENTA PARTICIPATIONS AG, priority 2013, dated 2017).

Assays:
Assay type in all cases: in vivo
[1] = system: black-grass; test: Test Example 4: weedkilling efficacy by foliar treatment; H: black-grass; conditions: treatment dosage 315 g/ha
Outline: (§1)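 Seeds are spot-sown into sterilized diluvial soil and covered with about 1.5 cm of soil. After 14 days' greenhouse growth at 25 to 30° C, plants are sprayed on stems and leaves with diluted emulsion at the stated g/ha rate, then scored at 3 weeks.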

[2] = system: wheat; test: Test Example 4: foliar treatment, effect on crop; e: wheat; conditions: treatment dosage 315 g/ha
Outline: as §1

[3] = system: fig-leafed goosefoot; test: Test Example 3: weedkilling efficacy through soil treatment; M: fig-leafed goosefoot; conditions: treatment dosage 315 g/ha
Outline: (§2)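 Crop and weed responses were judged three weeks after a uniform surface spray of the water-diluted emulsion at the given g/ha rate. Seeds sat beneath about 1.5 cm of sterilized diluvial soil, and boxes stood in a greenhouse at 25 to 30° C.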

[4] = system: corn; test: Test Example 3: soil treatment, effect on crop; c: corn; conditions: treatment dosage 315 g/ha
Outline: as §2

[5] = system: chickweed; test: Test Example 4: weedkilling efficacy by foliar treatment; N: chickweed; conditions: treatment dosage 315 g/ha
Outline: as §1

[6] = system: redroot pigweed; test: Test Example 4: weedkilling efficacy by foliar treatment; L: redroot pigweed; conditions: treatment dosage 315 g/ha
Outline: as §1

[7] = system: green foxtail; test: Test Example 3: weedkilling efficacy through soil treatment; E: green foxtail; conditions: treatment dosage 315 g/ha
Outline: as §2

[8] = system: directly sown rice; test: Test Example 3: soil treatment, effect on crop; b: directly sown rice; conditions: treatment dosage 315 g/ha
Outline: as §2

[9] = system: fig-leafed goosefoot; test: Test Example 4: weedkilling efficacy by foliar treatment; M: fig-leafed goosefoot; conditions: treatment dosage 315 g/ha
Outline: as §1

[10] = system: Italian ryegrass; test: Test Example 3: weedkilling efficacy through soil treatment; I: Italian ryegrass; conditions: treatment dosage 315 g/ha
Outline: as §2

[11] = system: beet; test: Test Example 4: foliar treatment, effect on crop; f: beet; conditions: treatment dosage 315 g/ha
Outline: as §1

[12] = system: chickweed; test: Test Example 3: weedkilling efficacy through soil treatment; N: chickweed; conditions: treatment dosage 315 g/ha
Outline: as §2

[13] = system: wheat; test: Test Example 3: soil treatment, effect on crop; e: wheat; conditions: treatment dosage 315 g/ha
Outline: as §2

[14] = system: corn; test: Test Example 4: foliar treatment, effect on crop; c: corn; conditions: treatment dosage 315 g/ha
Outline: as §1

[15] = system: crabgrass; test: Test Example 3: weedkilling efficacy through soil treatment; D: crabgrass; conditions: treatment dosage 315 g/ha
Outline: as §2

[16] = system: black-grass; test: Test Example 3: weedkilling efficacy through soil treatment; H: black-grass; conditions: treatment dosage 315 g/ha
Outline: as §2

[17] = system: bulrush; test: Test Example 1: weedkilling efficacy, preemergent weed treatment in the submerged state; B: bulrush; conditions: treatment dosage 252 g/ha
Outline: (§3)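 Visual scores against set criteria were taken 3 weeks after treatment. Compounds, as diluted emulsions at specified g/ha, went onto the water surface of 4 cm-flooded alluvial soil pots on the day weeds were sown and 2.5-leaf rice was transplanted; greenhouse held 25–30 °C.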

[18] = system: Indian mallow; test: Test Example 3: weedkilling efficacy through soil treatment; K: Indian mallow; conditions: treatment dosage 315 g/ha
Outline: as §2

[19] = system: crabgrass; test: Test Example 4: weedkilling efficacy by foliar treatment; D: crabgrass; conditions: treatment dosage 315 g/ha
Outline: as §1

[20] = system: barnyard grass; test: Test Example 2: weedkilling efficacy, growth period weed treatment in the submerged state; A: barnyard grass; conditions: treatment dosage 252 g/ha
Outline: (§4)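 Barnyard grass, bulrush and oval-leafed pondweed sown in alluvial soil under 4 cm flooding, greenhouse 25 to 30° C. At 1-2 leaf stage, water-diluted emulsion applied to the water surface at stated g/ha dosages; effects scored 3 weeks later.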

[21] = system: soybean; test: Test Example 4: foliar treatment, effect on crop; d: soybean; conditions: treatment dosage 315 g/ha
Outline: as §1

[22] = system: birds-eye speedwell; test: Test Example 4: weedkilling efficacy by foliar treatment; p: birds-eye speedwell; conditions: treatment dosage 315 g/ha
Outline: as §1

[23] = system: oval-leafed pondweed; test: Test Example 2: weedkilling efficacy, growth period weed treatment in the submerged state; C: oval-leafed pondweed; conditions: treatment dosage 252 g/ha
Outline: as §4

[24] = system: soybean; test: Test Example 3: soil treatment, effect on crop; d: soybean; conditions: treatment dosage 315 g/ha
Outline: as §2

[25] = system: redroot pigweed; test: Test Example 3: weedkilling efficacy through soil treatment; L: redroot pigweed; conditions: treatment dosage 315 g/ha
Outline: as §2

[26] = system: wild oat; test: Test Example 3: weedkilling efficacy through soil treatment; G: wild oat; conditions: treatment dosage 315 g/ha
Outline: as §2

[27] = system: Italian ryegrass; test: Test Example 4: weedkilling efficacy by foliar treatment; I: Italian ryegrass; conditions: treatment dosage 315 g/ha
Outline: as §1

[28] = system: bulrush; test: Test Example 2: weedkilling efficacy, growth period weed treatment in the submerged state; B: bulrush; conditions: treatment dosage 252 g/ha
Outline: as §4

[29] = system: green foxtail; test: Test Example 4: weedkilling efficacy by foliar treatment; E: green foxtail; conditions: treatment dosage 315 g/ha
Outline: as §1

[30] = system: Indian mallow; test: Test Example 4: weedkilling efficacy by foliar treatment; K: Indian mallow; conditions: treatment dosage 315 g/ha
Outline: as §1

[31] = system: barnyard grass; test: Test Example 1: weedkilling efficacy, preemergent weed treatment in the submerged state; A: barnyard grass; conditions: treatment dosage 252 g/ha
Outline: as §3

[32] = system: wild oat; test: Test Example 4: weedkilling efficacy by foliar treatment; G: wild oat; conditions: treatment dosage 315 g/ha
Outline: as §1

[33] = system: catchweed; test: Test Example 4: weedkilling efficacy by foliar treatment; O: catchweed; conditions: treatment dosage 315 g/ha
Outline: as §1

[34] = system: transplanted rice; test: Test Example 1: preemergent weed treatment in the submerged state, effect on crop; a: transplanted rice; conditions: treatment dosage 252 g/ha
Outline: as §3

[35] = system: beet; test: Test Example 3: soil treatment, effect on crop; f: beet; conditions: treatment dosage 315 g/ha
Outline: as §2

[36] = system: oval-leafed pondweed; test: Test Example 1: weedkilling efficacy, preemergent weed treatment in the submerged state; C: oval-leafed pondweed; conditions: treatment dosage 252 g/ha
Outline: as §3

[37] = system: directly sown rice; test: Test Example 4: foliar treatment, effect on crop; b: directly sown rice; conditions: treatment dosage 315 g/ha
Outline: as §1

[38] = system: birds-eye speedwell; test: Test Example 3: weedkilling efficacy through soil treatment; p: birds-eye speedwell; conditions: treatment dosage 315 g/ha
Outline: as §2

| SMILES | H (black-grass) weedkilling efficacy grade [1] | e (wheat) effect on crop grade [2] | M (fig-leafed goosefoot) weedkilling efficacy grade [3] | c (corn) effect on crop grade [4] | N (chickweed) weedkilling efficacy grade [5] | L (redroot pigweed) weedkilling efficacy grade [6] | E (green foxtail) weedkilling efficacy grade [7] | b (directly sown rice) effect on crop grade [8] | M (fig-leafed goosefoot) weedkilling efficacy grade [9] | I (Italian ryegrass) weedkilling efficacy grade [10] | f (beet) effect on crop grade [11] | N (chickweed) weedkilling efficacy grade [12] | e (wheat) effect on crop grade [13] | c (corn) effect on crop grade [14] | D (crabgrass) weedkilling efficacy grade [15] | H (black-grass) weedkilling efficacy grade [16] | B (bulrush) weedkilling efficacy grade [17] | K (Indian mallow) weedkilling efficacy grade [18] | D (crabgrass) weedkilling efficacy grade [19] | A (barnyard grass) weedkilling efficacy grade [20] | also measured |
| --- | --- | --- | --- | --- | --- | --- | --- | --- | --- | --- | --- | --- | --- | --- | --- | --- | --- | --- | --- | --- | --- |
| CC1=C(c2ccccc2)C(=O)N(C(C)(C)C(=O)Nc2cc(Cl)cc(Cl)n2)CO1 [B-2-34] | 5 (weed kill ratio 90% or more, (practically complete withering)) | 1 (weed kill ratio 5% or more, less than 20%) | 4 (weed kill ratio 70% or more, less than 90%) | 2 (weed kill ratio 20% or more, less than 40%) | 3 (weed kill ratio 40% or more, less than 70%) | 4 (weed kill ratio 70% or more, less than 90%) | 5 (weed kill ratio 90% or more, (practically complete withering)) | 5 (weed kill ratio 90% or more, (practically complete withering)) | 3 (weed kill ratio 40% or more, less than 70%) | 5 (weed kill ratio 90% or more, (practically complete withering)) | 4 (weed kill ratio 70% or more, less than 90%) | 5 (weed kill ratio 90% or more, (practically complete withering)) | 1 (weed kill ratio 5% or more, less than 20%) | 3 (weed kill ratio 40% or more, less than 70%) | 5 (weed kill ratio 90% or more, (practically complete withering)) | 5 (weed kill ratio 90% or more, (practically complete withering)) | 5 (weed kill ratio 90% or more, (practically complete withering)) | 5 (weed kill ratio 90% or more, (practically complete withering)) | 5 (weed kill ratio 90% or more, (practically complete withering)) | 5 (weed kill ratio 90% or more, (practically complete withering)) | d (soybean) effect on crop grade [21]: 5 (weed kill ratio 90% or more, (practically complete withering)); P (birds-eye speedwell) weedkilling efficacy grade [22]: 3 (weed kill ratio 40% or more, less than 70%); C (oval-leafed pondweed) weedkilling efficacy grade [23]: 5 (weed kill ratio 90% or more, (practically complete withering)); d (soybean) effect on crop grade [24]: 1 (weed kill ratio 5% or more, less than 20%); L (redroot pigweed) weedkilling efficacy grade [25]: 5 (weed kill ratio 90% or more, (practically complete withering)); G (wild oat) weedkilling efficacy grade [26]: 5 (weed kill ratio 90% or more, (practically complete withering)); I (Italian ryegrass) weedkilling efficacy grade [27]: 5 (weed kill ratio 90% or more, (practically complete withering)); B (bulrush) weedkilling efficacy grade [28]: 5 (weed kill ratio 90% or more, (practically complete withering)); E (green foxtail) weedkilling efficacy grade [29]: 5 (weed kill ratio 90% or more, (practically complete withering)); K (Indian mallow) weedkilling efficacy grade [30]: 5 (weed kill ratio 90% or more, (practically complete withering)); A (barnyard grass) weedkilling efficacy grade [31]: 5 (weed kill ratio 90% or more, (practically complete withering)); G (wild oat) weedkilling efficacy grade [32]: 5 (weed kill ratio 90% or more, (practically complete withering)); O (catchweed) weedkilling efficacy grade [33]: 0 (weed kill ratio 5% or less (practically no effect)); a (transplanted rice) effect on crop grade [34]: 0 (weed kill ratio 5% or less (practically no effect)); f (beet) effect on crop grade [35]: 5 (weed kill ratio 90% or more, (practically complete withering)); C (oval-leafed pondweed) weedkilling efficacy grade [36]: 5 (weed kill ratio 90% or more, (practically complete withering)); b (directly sown rice) effect on crop grade [37]: 5 (weed kill ratio 90% or more, (practically complete withering)) |
| CC1=C(c2ccccc2)C(=O)N(C(C)(C)C(=O)Nc2cc(Cl)nc(Cl)c2)CO1 [B-4-05] | 4 (weed kill ratio 70% or more, less than 90%) | 0 (weed kill ratio 5% or less (practically no effect)) | 4 (weed kill ratio 70% or more, less than 90%) | 0 (weed kill ratio 5% or less (practically no effect)) | 2 (weed kill ratio 20% or more, less than 40%) | 3 (weed kill ratio 40% or more, less than 70%) | 5 (weed kill ratio 90% or more, (practically complete withering)) | 5 (weed kill ratio 90% or more, (practically complete withering)) | 2 (weed kill ratio 20% or more, less than 40%) | 5 (weed kill ratio 90% or more, (practically complete withering)) | 0 (weed kill ratio 5% or less (practically no effect)) | 3 (weed kill ratio 40% or more, less than 70%) | 0 (weed kill ratio 5% or less (practically no effect)) | 3 (weed kill ratio 40% or more, less than 70%) | 5 (weed kill ratio 90% or more, (practically complete withering)) | 5 (weed kill ratio 90% or more, (practically complete withering)) | 5 (weed kill ratio 90% or more, (practically complete withering)) | 3 (weed kill ratio 40% or more, less than 70%) | 5 (weed kill ratio 90% or more, (practically complete withering)) | 4 (weed kill ratio 70% or more, less than 90%) | P (birds-eye speedwell) weedkilling efficacy grade [38]: 5 (weed kill ratio 90% or more, (practically complete withering)); d (soybean) effect on crop grade [21]: 3 (weed kill ratio 40% or more, less than 70%); P (birds-eye speedwell) weedkilling efficacy grade [22]: 4 (weed kill ratio 70% or more, less than 90%); d (soybean) effect on crop grade [24]: 0 (weed kill ratio 5% or less (practically no effect)); L (redroot pigweed) weedkilling efficacy grade [25]: 4 (weed kill ratio 70% or more, less than 90%); G (wild oat) weedkilling efficacy grade [26]: 5 (weed kill ratio 90% or more, (practically complete withering)); I (Italian ryegrass) weedkilling efficacy grade [27]: 5 (weed kill ratio 90% or more, (practically complete withering)); B (bulrush) weedkilling efficacy grade [28]: 5 (weed kill ratio 90% or more, (practically complete withering)); E (green foxtail) weedkilling efficacy grade [29]: 5 (weed kill ratio 90% or more, (practically complete withering)); K (Indian mallow) weedkilling efficacy grade [30]: 3 (weed kill ratio 40% or more, less than 70%); A (barnyard grass) weedkilling efficacy grade [31]: 5 (weed kill ratio 90% or more, (practically complete withering)); G (wild oat) weedkilling efficacy grade [32]: 4 (weed kill ratio 70% or more, less than 90%); O (catchweed) weedkilling efficacy grade [33]: 1 (weed kill ratio 5% or more, less than 20%); a (transplanted rice) effect on crop grade [34]: 0 (weed kill ratio 5% or less (practically no effect)); C (oval-leafed pondweed) weedkilling efficacy grade [36]: 5 (weed kill ratio 90% or more, (practically complete withering)); b (directly sown rice) effect on crop grade [37]: 5 (weed kill ratio 90% or more, (practically complete withering)) |
